Measurements taken from patent US6150385A, “1,3,4-thiadiazoles useful for the treatment of CMV infections” (Pharmacia & Upjohn Company, priority 1999, dated 2000).

Each molecule was assayed against T1, HCMV polymerase (Human cytomegalovirus, UniProt P08546) (assay: HCMV polymerase assay (scintillation proximity assay)). Details: percentage of inhibition at 25 μM concentration in CMV polymerase assay.
T1 construct: made in house; host or cells: SF-9 insect cells infected with recombinant baculovirus
T1 sequence (P08546 whole entry): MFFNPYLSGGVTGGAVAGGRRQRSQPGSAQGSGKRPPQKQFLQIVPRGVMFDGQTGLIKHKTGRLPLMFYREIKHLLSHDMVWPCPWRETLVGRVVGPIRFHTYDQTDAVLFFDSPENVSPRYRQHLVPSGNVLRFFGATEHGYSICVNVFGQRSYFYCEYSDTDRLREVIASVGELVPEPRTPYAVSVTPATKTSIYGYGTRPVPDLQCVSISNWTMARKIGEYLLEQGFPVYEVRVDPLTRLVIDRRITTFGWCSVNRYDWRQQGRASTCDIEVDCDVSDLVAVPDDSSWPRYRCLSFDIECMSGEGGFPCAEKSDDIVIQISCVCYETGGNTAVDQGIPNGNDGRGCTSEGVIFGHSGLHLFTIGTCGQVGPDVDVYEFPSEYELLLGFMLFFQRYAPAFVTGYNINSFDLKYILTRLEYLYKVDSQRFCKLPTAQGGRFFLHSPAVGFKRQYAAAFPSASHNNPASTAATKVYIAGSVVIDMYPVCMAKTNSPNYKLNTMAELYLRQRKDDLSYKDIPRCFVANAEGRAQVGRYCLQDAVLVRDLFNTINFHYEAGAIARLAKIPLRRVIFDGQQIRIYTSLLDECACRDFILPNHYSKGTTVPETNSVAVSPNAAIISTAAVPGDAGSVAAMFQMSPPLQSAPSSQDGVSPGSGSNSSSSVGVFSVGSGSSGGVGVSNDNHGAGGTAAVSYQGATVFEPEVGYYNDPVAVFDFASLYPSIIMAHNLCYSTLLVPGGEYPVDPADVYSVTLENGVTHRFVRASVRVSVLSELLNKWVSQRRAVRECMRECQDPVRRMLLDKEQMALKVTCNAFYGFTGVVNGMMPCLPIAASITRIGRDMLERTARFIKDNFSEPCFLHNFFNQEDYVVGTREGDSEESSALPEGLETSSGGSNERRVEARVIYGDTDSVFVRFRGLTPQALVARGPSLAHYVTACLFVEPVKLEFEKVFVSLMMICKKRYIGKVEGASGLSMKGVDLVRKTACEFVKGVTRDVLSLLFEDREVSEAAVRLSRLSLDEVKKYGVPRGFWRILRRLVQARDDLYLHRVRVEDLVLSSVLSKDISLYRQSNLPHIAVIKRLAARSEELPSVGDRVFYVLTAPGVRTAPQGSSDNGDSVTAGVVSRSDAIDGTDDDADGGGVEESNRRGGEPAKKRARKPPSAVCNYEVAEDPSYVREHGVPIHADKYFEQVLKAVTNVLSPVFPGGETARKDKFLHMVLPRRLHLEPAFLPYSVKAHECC
Assay type: biochemical
Protocol: The compounds of the present invention are tested in an polymerase assay to show activity described below, which is indicative of a compound's activity and thus of its use as an anti-viral agent.
The HCMV polymerase assay is performed using a scintillation proximity assay (SPA) as described in several references, such as N. D. Cook, et al., Pharmaceutical Manufacturing International, pages 49-53 (1992); K. Takeuchi, Laboratory Practice, September issue (1992); U.S. Pat. No. 4,568,649 (1986); which are incorporated by reference herein. Reactions are performed in 96-well plates. The assay is conducted in 100 μl volume with 5.4 mM HEPES (pH 7.5), 11.7 mM KCl, 4.5 mM MgCl2, 0.36 mg/ml BSA, and 90 nM ^3 H-dTTP. Assays are run with and without CHAPS, (3-[(3-Cholamidopropyl)-dimethylammonio]-1-propanesulfonate) at a final concentration of 2 mM. HCMV is diluted in enzyme dilution buffer containing 50% glycerol, 250 mM NaCl, 10 mM HEPES (pH 7.5), 100 μg/ml BSA, and 0.01% sodium azide. The HCMV polymerase, which is expressed in recombinant baculovirus-infected SF-9 cells and purified according to literature procedures, is added at 10% (or 10 μl) of the final reaction volume, i.e., 100 μl. Compounds are diluted in 50% DMSO and 10 μl are added to each well. Control wells contain an equivalent concentration of DMSO. Unless noted otherwise, reactions are initiated via the addition of 6 nM biotinylated poly(dA)-oligo(dT) template/primer to reaction mixtures containing the enzyme, substrate, and compounds of interest. Plates are incubated in a 25° C. or 37° C. H2 O bath and terminated via the addition of 40 μl/reaction of 0.5 M EDTA (pH 8) per well. Reactions are terminated within the time-frame during which substrate incorporation is linear and varied depending upon the enzyme and conditions used, i.e., 30 min. for HCMV polymerase. Ten μl of streptavidin-SPA beads (20 mg/ml in PBS/10% glycerol) are added following termination of the reaction. Plates are incubated 10 min. at 37° C., then equilibrated to room temperature, and counted on a Packard Topcount.
In TABLE 1, "MS" refers to mass spectral data, "% inhib" refers to percentage of inhibition at 25 μM concentration in CMV polymerase assay.
Work on `NS(=O)(=O)c1ccc(CNc2nnc(NC(=O)/C=C/c3ccccc3)s2)cc1` [compound 32, (E)-N-(5-{[4-(aminosulfonyl)benzyl]amino}-1,3,4-thiadiazol-2-yl)-3-phenyl-2-propenamide] yielded an inhibition at 25 µM of 90.6%. With `O=C(Nc1nnc(NCCSc2ccccc2)s1)c1ccc2c(c1)C(=O)OC2=O` [compound 33, 1,3-dioxo-N-(5-{[2-(phenylsulfanyl)ethyl]amino}-1,3,4-thiadiazol-2-yl)-1,3-dihydro-2-benzofuran-5-carboxamide] the inhibition at 25 µM was 90.1%. With `O=C(/C=C/c1ccccc1Cl)Nc1nnc(NCC2CC2)s1` [compound 34, (E)-3-(2-chlorophenyl)-N-{5-[(cyclopropylmethyl)amino]-1,3,4-thiadiazol-2-yl}-2-propenamide] the inhibition at 25 µM was 89.9%. Work on `CC(C)c1cc(C(C)C)c(C(=O)Nc2nnc(NCc3ccc(S(N)(=O)=O)cc3)s2)c(C(C)C)c1` [compound 35, N-(5-{[4-(aminosulfonyl)benzyl]amino}-1,3,4-thiadiazol-2-yl)-2,4,6-triisopropylbenzamide] yielded an inhibition at 25 µM of 89.7%. In the case of `CC(C)c1cc(C(C)C)c(C(=O)Nc2nnc(NCCCNC3CCCCC3)s2)c(C(C)C)c1` [compound 36, N-(5-{[3-(cyclohexylamino)propyl]amino}-1,3,4-thiadiazol-2-yl)-2,4,6-triisopropylbenzamide], the inhibition at 25 µM is reported as 87.6%. `O=C(Nc1nnc(NCCCNC2CCCCC2)s1)c1c(Cl)cccc1Cl` [compound 37, 2,6-dichloro-N-(5-{[3-(cyclohexylamino)propyl]amino}-1,3,4-thiadiazol-2-yl)benzamide] showed an inhibition at 25 µM of 87.4%. For `CCCCCCCC/C=C/CCCCCCCC(=O)Nc1nnc(NCC(c2ccccc2)c2ccccc2)s1` [compound 38, (E)-N-{5-[(2,2-diphenylethyl)amino]-1,3,4-thiadiazol-2-yl}-9-octadecenamide], the inhibition at 25 µM was 87.3%. Work on `O=C(Nc1nnc(NCc2cccs2)s1)c1ccc2c(c1)C(=O)OC2=O` [compound 39, 1,3-dioxo-N-{5-[(2-thienylmethyl)amino]-1,3,4-thiadiazol-2-yl}-1,3-dihydro-2-benzofuran-5-carboxamide] yielded an inhibition at 25 µM of 87.1%. `O=C(Nc1nnc(NC2CCc3ccccc32)s1)c1ccc2c(c1)C(=O)OC2=O` (stereo not shown) [compound 40, N-[5-(2,3-dihydro-1H-inden-1-ylamino)-1,3,4-thiadiazol-2-yl]-1,3-dioxo-1,3-dihydro-2-benzofuran-5-carboxamide] was tested, and the inhibition at 25 µM was 86.3%. `CCCCCCCC/C=C/CCCCCCCC(=O)Nc1nnc(NCCc2cccs2)s1` [compound 41, (E)-N-(5-{[2-(2-thienyl)ethyl]amino}-1,3,4-thiadiazol-2-yl)-9-octadecenamide] was tested, and the inhibition at 25 µM was 85.7%. Work on `CCCCCCCC/C=C/CCCCCCCC(=O)Nc1nnc(NCc2cccs2)s1` [compound 42, (E)-N-{5-[(2-thienylmethyl)amino]-1,3,4-thiadiazol-2-yl}-9-octadecenamide] yielded an inhibition at 25 µM of 84.6%. Molecule `CCOc1ccc2ccccc2c1C(=O)Nc1nnc(NCc2ccc3c(c2)OCO3)s1` [compound 43, N-{5-[(1,3-benzodioxol-5-ylmethyl)amino]-1,3,4-thiadiazol-2-yl}-2-ethoxy-1-naphthamide] has an inhibition at 25 µM of 83.9%. With `O=C(Nc1nnc(NCc2cccc3ccccc23)s1)c1ccc([N+](=O)[O-])o1` [compound 44, N-{5-[(1-naphthylmethyl)amino]-1,3,4-thiadiazol-2-yl}-5-nitro-2-furamide] the inhibition at 25 µM was 83.3%. `CCOc1ccc2ccccc2c1C(=O)Nc1nnc(NC2CCN(Cc3ccccc3)CC2)s1` [compound 45, N-{5-[(1-benzyl-4-piperidinyl)amino]-1,3,4-thiadiazol-2-yl}-2-ethoxy-1-naphthamide] showed an inhibition at 25 µM of 83.1%. `N#Cc1ccc(C(=O)Nc2nnc(NCCC(c3ccccc3)c3ccccc3)s2)cc1` [compound 46, 4-cyano-N-{5-[(3,3-diphenylpropyl)amino]-1,3,4-thiadiazol-2-yl}benzamide] showed an inhibition at 25 µM of 82.3%. Work on `O=C(Nc1nnc(NCCc2c[nH]c3ccccc23)s1)c1ccc([N+](=O)[O-])o1` [compound 47, N-(5-{[2-(1H-indol-3-yl)ethyl]amino}-1,3,4-thiadiazol-2-yl)-5-nitro-2-furamide] yielded an inhibition at 25 µM of 81.6%. In the case of `CCCCCCCC/C=C/CCCCCCCC(=O)Nc1nnc(NCc2ccc(F)cc2)s1` [compound 48, (E)-N-{5-[(4-fluorobenzyl)amino]-1,3,4-thiadiazol-2-yl}-9-octadecenamide], the inhibition at 25 µM is reported as 81.5%. In the case of `CCCCCCCCCCCNc1nnc(NC(=O)c2ccc(S(=O)(=O)F)cc2)s1` [compound 49, 4-({[5-(undecylamino)-1,3,4-thiadiazol-2-yl]amino}carbonyl)benzenesulfonyl fluoride], the “% Inhib” value is reported as 80.3%. With `NS(=O)(=O)c1ccc(CCNc2nnc(NC(=O)/C=C/c3ccccc3)s2)cc1` [compound 50, (E)-N-(5-{[4-(aminosulfonyl)phenethyl]amino}-1,3,4-thiadiazol-2-yl)-3-phenyl-2-propenamide] the inhibition at 25 µM was 79.8%. In the case of `CCCCCCCC/C=C/CCCCCCCC(=O)Nc1nnc(NCCCCCCCCCCC)s1` [compound 51, (E)-N-[5-(undecylamino)-1,3,4-thiadiazol-2-yl]-9-octadecenamide], the inhibition at 25 µM is reported as 79.5%. Molecule `O=C(Nc1nnc(NCCCCc2ccccc2)s1)c1cc2ccccc2s1` [compound 52, N-{5-[(4-phenylbutyl)amino]-1,3,4-thiadiazol-2-yl}-1-benzothiophen-2-carboxamide] has an inhibition at 25 µM of 78.7%. In the case of `CCCCCCCC/C=C/CCCCCCCC(=O)Nc1nnc(NCc2ccc3c(c2)OCO3)s1` [compound 53, (E)-N-{5-[(1,3-benzodioxol-5-ylmethyl)amino]-1,3,4-thiadiazol-2-yl}-9-octadecenamide], the inhibition at 25 µM is reported as 77.9%. `O=C(Nc1nnc(NCc2ccncc2)s1)c1ccc2c(c1)C(=O)OC2=O` [compound 54, 1,3-dioxo-N-{5-[(4-pyridinylmethyl)amino]-1,3,4-thiadiazol-2-yl}-1,3-dihydro-2-benzofuran-5-carboxamide] was tested, and the inhibition at 25 µM was 77.7%. `CCOc1ccc2ccccc2c1C(=O)Nc1nnc(NCC(c2ccccc2)c2ccccc2)s1` [compound 55, N-{5-[(2,2-diphenylethyl)amino]-1,3,4-thiadiazol-2-yl}-2-ethoxy-1-naphthamide] was tested, and the inhibition at 25 µM was 77.6%. `O=C(Nc1nnc(NCC(c2ccccc2)c2ccccc2)s1)c1c(Cl)cccc1Cl` [compound 56, 2,6-dichloro-N-{5-[(2,2-diphenylethyl)amino]-1,3,4-thiadiazol-2-yl}benzamide] showed an inhibition at 25 µM of 77.4%. `NS(=O)(=O)c1ccc(CNc2nnc(NC(=O)c3ccc(I)cc3)s2)cc1` [compound 57, N-(5-{[4-(aminosulfonyl)benzyl]amino}-1,3,4-thiadiazol-2-yl)-4-iodobenzamide] gave an inhibition at 25 µM of 76.3%. For `CCCCCCCC/C=C/CCCCCCCC(=O)Nc1nnc(NCCSc2ccccc2)s1` [compound 58, (E)-N-(5-{[2-(phenylsulfanyl)ethyl]amino}-1,3,4-thiadiazol-2-yl)-9-octadecenamide], the inhibition at 25 µM was 75.8%. `O=C(Nc1nnc(NCCCCc2ccccc2)s1)c1ccc(I)cc1` [compound 59, 4-iodo-N-{5-[(4-phenylbutyl)amino]-1,3,4-thiadiazol-2-yl}benzamide] was tested, and the inhibition at 25 µM was 74.6%. `CCCCCCCCCCCNc1nnc(NC(=O)c2ccc([N+](=O)[O-])o2)s1` [compound 60, 5-nitro-N-[5-(undecylamino)-1,3,4-thiadiazol-2-yl]-2-furamide] gave an inhibition at 25 µM of 74.5%. Molecule `CCOc1ccc2ccccc2c1C(=O)Nc1nnc(NCCC(c2ccccc2)c2ccccc2)s1` [compound 61, N-{5-[(3,3-diphenylpropyl)amino]-1,3,4-thiadiazol-2-yl}-2-ethoxy-1-naphthamide] has an inhibition at 25 µM of 74.2%. `O=C(Nc1nnc(NCCCNC2CCCCC2)s1)c1cc2ccccc2s1` [compound 62, N-(5-{[3-(cyclohexylamino)propyl]amino}-1,3,4-thiadiazol-2-yl)-1-benzothiophene-2-carboxamide] showed an inhibition at 25 µM of 74%. With `O=C(Nc1nnc(NCCC(c2ccccc2)c2ccccc2)s1)c1c(Cl)cccc1Cl` [compound 63, 2,6-dichloro-N-{5-[(3,3-diphenylpropyl)amino]1,3,4-thiadiazol-2-yl}benzamide] the inhibition at 25 µM was 73.8%. In the case of `CCCCCCCC/C=C/CCCCCCCC(=O)Nc1nnc(NCCC(c2ccccc2)c2ccccc2)s1` [compound 64, (E)-N-{5-[(3,3-diphenylpropyl)amino]-1,3,4-thiadiazol-2-yl}-9-octadecenamide], the inhibition at 25 µM is reported as 73.6%. Molecule `CCCCCCCCCCCNc1nnc(NC(=O)c2ccc(C#N)cc2)s1` [compound 65, 4-cyano-N-[5-(undecylamino)-1,3,4-thiadiazol-2-yl]benzamide] has an inhibition at 25 µM of 72.2%.
